Data: ChEMBL document CHEMBL4507289, “Data for DCP probe GSM1” (2021)

Legend:
[1] = target: Serine/threonine-protein kinase SIK1 (Homo sapiens) (UniProt P57059); settings: Compound concentration 1000.0 nM
[2] = species on record: Rattus norvegicus; settings: Compound concentration 10.0 uM
[3] = target: Protein kinase C iota type (Homo sapiens) (UniProt P41743); settings: Compound concentration 1000.0 nM
[4] = target: Ribosomal protein S6 kinase alpha-5 (Homo sapiens) (UniProt O75582); settings: Compound concentration 1000.0 nM
[5] = target: Serine/threonine-protein kinase TAO1 (Homo sapiens) (UniProt Q7L7X3); settings: Compound concentration 1000.0 nM
[6] = target: Rhodopsin kinase GRK1 (Homo sapiens) (UniProt Q15835); settings: Compound concentration 1000.0 nM
[7] = target: Dual specificity tyrosine-phosphorylation-regulated kinase 1A (Homo sapiens) (UniProt Q13627); settings: Compound concentration 1000.0 nM
[8] = target: Sodium-dependent serotonin transporter (Homo sapiens, UniProt P31645); settings: Compound concentration 10.0 uM
[9] = target: Ribosomal protein S6 kinase alpha-6 (Homo sapiens) (UniProt Q9UK32); settings: Compound concentration 1000.0 nM
[10] = target: Receptor-interacting serine/threonine-protein kinase 4 (Homo sapiens) (UniProt P57078); settings: Compound concentration 1000.0 nM
[11] = target: Dual specificity mitogen-activated protein kinase kinase 3 (Homo sapiens) (UniProt P46734); settings: Compound concentration 1000.0 nM
[12] = target: MAP kinase-activated protein kinase 2 (Homo sapiens) (UniProt P49137); settings: Compound concentration 1000.0 nM
[13] = target: Serine/threonine-protein kinase RIO3 (Homo sapiens) (UniProt O14730); settings: Compound concentration 1000.0 nM
[14] = target: Serine/threonine-protein kinase pim-2 (Homo sapiens) (UniProt Q9P1W9); settings: Compound concentration 1000.0 nM
[15] = target: TGF-beta receptor type-1 (Homo sapiens) (UniProt P36897); settings: Compound concentration 1000.0 nM
[16] = tested on: Epidermal growth factor receptor (Homo sapiens), P00533 [L858R,T790M]; settings: Compound concentration 1000.0 nM
[17] = target: Tyrosine-protein kinase HCK (Homo sapiens) (UniProt P08631); settings: Compound concentration 1000.0 nM
[18] = target: Homeodomain-interacting protein kinase 2 (Homo sapiens) (UniProt Q9H2X6); settings: Compound concentration 1000.0 nM
[19] = target: Focal adhesion kinase 1 (Homo sapiens) (UniProt Q05397); settings: Compound concentration 1000.0 nM
[20] = target: Serine/threonine-protein kinase 38-like (Homo sapiens) (UniProt Q9Y2H1); settings: Compound concentration 1000.0 nM
[21] = tested on: Receptor-type tyrosine-protein kinase FLT3 (Homo sapiens), P36888 [N841I]; settings: Compound concentration 1000.0 nM
[22] = target: Serine/threonine-protein kinase/endoribonuclease IRE1 (Homo sapiens) (UniProt O75460); settings: Compound concentration 1000.0 nM
[23] = target: Cytoplasmic tyrosine-protein kinase BMX (Homo sapiens) (UniProt P51813); settings: Compound concentration 1000.0 nM
[24] = target: Inhibitor of nuclear factor kappa-B kinase subunit epsilon (Homo sapiens) (UniProt Q14164); settings: Compound concentration 1000.0 nM
[25] = target: ALK tyrosine kinase receptor (Homo sapiens) (UniProt Q9UM73); settings: Compound concentration 1000.0 nM
[26] = target: Serine/threonine-protein kinase MRCK alpha (Homo sapiens) (UniProt Q5VT25); settings: Compound concentration 1000.0 nM
[27] = target: SRSF protein kinase 2 (Homo sapiens) (UniProt P78362); settings: Compound concentration 1000.0 nM
[28] = tested on: Phosphatidylinositol 4,5-bisphosphate 3-kinase catalytic subunit alpha isoform (Homo sapiens), P42336 [E545A]; settings: Compound concentration 1000.0 nM
[29] = target: 5-hydroxytryptamine receptor 2C (Homo sapiens) (UniProt P28335); settings: Compound concentration 10.0 uM
[30] = target: Testis-specific serine/threonine-protein kinase 3 (Homo sapiens) (UniProt Q96PN8); settings: Compound concentration 1000.0 nM
[31] = target: Cyclin-dependent kinase 16 (Homo sapiens) (UniProt Q00536); settings: Compound concentration 1000.0 nM
[32] = target: Tyrosine-protein kinase ITK/TSK (Homo sapiens) (UniProt Q08881); settings: Compound concentration 1000.0 nM
[33] = tested on: Phosphatidylinositol 4,5-bisphosphate 3-kinase catalytic subunit alpha isoform (Homo sapiens), P42336 [H1047L]; settings: Compound concentration 1000.0 nM
[34] = target: 5-hydroxytryptamine receptor 1A (Homo sapiens) (UniProt P08908); settings: Compound concentration 10.0 uM
[35] = target: Activated CDC42 kinase 1 (Homo sapiens) (UniProt Q07912); settings: Compound concentration 1000.0 nM
[36] = target: SNF-related serine/threonine-protein kinase (Homo sapiens) (UniProt Q9NRH2); settings: Compound concentration 1000.0 nM
[37] = target: NUAK family SNF1-like kinase 1 (Homo sapiens) (UniProt O60285); settings: Compound concentration 1000.0 nM
[38] = tested on: Tyrosine-protein kinase ABL1 (Homo sapiens), P00519 [Q252H]; settings: Compound concentration 1000.0 nM
[39] = target: MAP kinase-activated protein kinase 5 (Homo sapiens) (UniProt Q8IW41); settings: Compound concentration 1000.0 nM
[40] = target: Bone morphogenetic protein receptor type-2 (Homo sapiens) (UniProt Q13873); settings: Compound concentration 1000.0 nM
[41] = target: Calcium/calmodulin-dependent protein kinase type II subunit gamma (Homo sapiens) (UniProt Q13555); settings: Compound concentration 1000.0 nM
[42] = target: Platelet-derived growth factor receptor beta (Homo sapiens) (UniProt P09619); settings: Compound concentration 1000.0 nM
[43] = target: Alpha-2A adrenergic receptor (Homo sapiens) (UniProt P08913); settings: Compound concentration 10.0 uM
[44] = target: Cyclin-G-associated kinase (Homo sapiens) (UniProt O14976); settings: Compound concentration 1000.0 nM
[45] = target: Serine/threonine-protein kinase PLK4 (Homo sapiens) (UniProt O00444); settings: Compound concentration 1000.0 nM
Chain of Serine/threonine-protein kinase PLK4 (Homo sapiens) (O00444 whole entry): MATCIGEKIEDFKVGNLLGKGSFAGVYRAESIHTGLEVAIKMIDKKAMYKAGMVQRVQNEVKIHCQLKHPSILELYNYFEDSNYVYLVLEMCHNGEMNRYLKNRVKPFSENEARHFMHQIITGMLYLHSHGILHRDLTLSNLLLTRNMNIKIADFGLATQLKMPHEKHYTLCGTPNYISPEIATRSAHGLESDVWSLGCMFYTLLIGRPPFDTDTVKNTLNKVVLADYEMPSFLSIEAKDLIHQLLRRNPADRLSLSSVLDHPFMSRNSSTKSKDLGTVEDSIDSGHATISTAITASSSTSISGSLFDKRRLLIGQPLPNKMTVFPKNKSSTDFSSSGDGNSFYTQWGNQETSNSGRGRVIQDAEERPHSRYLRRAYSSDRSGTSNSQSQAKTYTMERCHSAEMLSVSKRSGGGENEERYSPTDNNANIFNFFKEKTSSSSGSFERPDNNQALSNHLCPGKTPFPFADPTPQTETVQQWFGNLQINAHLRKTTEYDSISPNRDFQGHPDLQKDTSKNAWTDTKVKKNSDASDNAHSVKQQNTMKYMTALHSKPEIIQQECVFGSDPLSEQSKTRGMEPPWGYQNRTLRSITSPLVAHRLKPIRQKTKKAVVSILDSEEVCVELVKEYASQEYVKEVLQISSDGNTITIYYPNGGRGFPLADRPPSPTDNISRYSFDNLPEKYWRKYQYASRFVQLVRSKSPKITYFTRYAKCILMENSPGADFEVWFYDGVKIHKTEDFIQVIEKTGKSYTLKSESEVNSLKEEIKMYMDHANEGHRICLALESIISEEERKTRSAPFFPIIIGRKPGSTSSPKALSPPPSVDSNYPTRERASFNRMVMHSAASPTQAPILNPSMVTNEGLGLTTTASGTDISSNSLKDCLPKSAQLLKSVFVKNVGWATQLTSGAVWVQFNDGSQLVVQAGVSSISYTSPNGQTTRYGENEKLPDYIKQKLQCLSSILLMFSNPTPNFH

Chain of Tyrosine-protein kinase HCK (Homo sapiens) (P08631 2-526 limits assumed): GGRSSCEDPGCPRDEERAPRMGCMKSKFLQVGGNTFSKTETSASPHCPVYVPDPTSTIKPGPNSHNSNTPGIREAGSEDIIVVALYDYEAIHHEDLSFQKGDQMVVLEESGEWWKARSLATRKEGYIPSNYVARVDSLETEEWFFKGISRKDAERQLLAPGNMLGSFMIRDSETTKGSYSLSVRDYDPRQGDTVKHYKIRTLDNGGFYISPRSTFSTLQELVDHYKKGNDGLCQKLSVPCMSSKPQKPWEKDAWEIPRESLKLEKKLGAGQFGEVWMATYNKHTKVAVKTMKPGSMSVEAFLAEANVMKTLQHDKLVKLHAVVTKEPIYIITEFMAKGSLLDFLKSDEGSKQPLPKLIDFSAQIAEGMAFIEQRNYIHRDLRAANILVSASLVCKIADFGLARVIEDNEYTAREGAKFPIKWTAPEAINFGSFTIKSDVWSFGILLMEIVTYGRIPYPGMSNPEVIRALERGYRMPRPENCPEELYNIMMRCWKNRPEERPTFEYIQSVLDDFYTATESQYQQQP
Chain of Serine/threonine-protein kinase/endoribonuclease IRE1 (Homo sapiens) (O75460 19-977 limits assumed): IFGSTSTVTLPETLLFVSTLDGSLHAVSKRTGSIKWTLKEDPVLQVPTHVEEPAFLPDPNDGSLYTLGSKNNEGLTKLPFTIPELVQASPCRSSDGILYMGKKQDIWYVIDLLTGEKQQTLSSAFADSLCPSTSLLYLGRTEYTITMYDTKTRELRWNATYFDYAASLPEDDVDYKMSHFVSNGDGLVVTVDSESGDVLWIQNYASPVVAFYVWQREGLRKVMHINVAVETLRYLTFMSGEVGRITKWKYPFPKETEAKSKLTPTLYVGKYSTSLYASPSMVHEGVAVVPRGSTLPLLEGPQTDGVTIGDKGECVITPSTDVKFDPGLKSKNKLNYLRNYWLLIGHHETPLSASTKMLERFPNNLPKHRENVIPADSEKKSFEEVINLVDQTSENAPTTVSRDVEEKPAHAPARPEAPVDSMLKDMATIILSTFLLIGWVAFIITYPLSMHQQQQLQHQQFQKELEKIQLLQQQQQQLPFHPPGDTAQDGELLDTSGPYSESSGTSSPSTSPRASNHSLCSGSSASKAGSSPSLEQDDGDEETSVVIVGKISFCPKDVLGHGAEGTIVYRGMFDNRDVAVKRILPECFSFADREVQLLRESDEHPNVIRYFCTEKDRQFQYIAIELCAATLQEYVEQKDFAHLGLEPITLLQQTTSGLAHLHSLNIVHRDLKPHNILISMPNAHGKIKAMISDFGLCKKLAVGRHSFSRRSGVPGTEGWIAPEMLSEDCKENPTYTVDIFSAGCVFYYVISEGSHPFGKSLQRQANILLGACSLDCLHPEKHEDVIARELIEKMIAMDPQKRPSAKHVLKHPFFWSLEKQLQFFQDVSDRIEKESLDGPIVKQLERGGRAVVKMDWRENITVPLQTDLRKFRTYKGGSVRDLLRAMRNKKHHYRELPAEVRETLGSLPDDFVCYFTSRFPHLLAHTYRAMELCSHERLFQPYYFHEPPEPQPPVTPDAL
Chain of Dual specificity mitogen-activated protein kinase kinase 3 (Homo sapiens) (P46734 whole entry): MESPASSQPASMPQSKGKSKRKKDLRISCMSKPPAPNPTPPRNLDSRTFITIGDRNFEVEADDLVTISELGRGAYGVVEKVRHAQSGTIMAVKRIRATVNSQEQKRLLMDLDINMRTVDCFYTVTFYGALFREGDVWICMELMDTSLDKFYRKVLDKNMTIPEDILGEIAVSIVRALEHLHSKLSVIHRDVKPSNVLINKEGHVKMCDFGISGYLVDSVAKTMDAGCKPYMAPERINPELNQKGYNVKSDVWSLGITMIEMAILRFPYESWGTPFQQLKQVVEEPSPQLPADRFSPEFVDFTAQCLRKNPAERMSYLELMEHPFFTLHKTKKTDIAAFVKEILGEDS
Chain of TGF-beta receptor type-1 (Homo sapiens) (P36897 whole entry): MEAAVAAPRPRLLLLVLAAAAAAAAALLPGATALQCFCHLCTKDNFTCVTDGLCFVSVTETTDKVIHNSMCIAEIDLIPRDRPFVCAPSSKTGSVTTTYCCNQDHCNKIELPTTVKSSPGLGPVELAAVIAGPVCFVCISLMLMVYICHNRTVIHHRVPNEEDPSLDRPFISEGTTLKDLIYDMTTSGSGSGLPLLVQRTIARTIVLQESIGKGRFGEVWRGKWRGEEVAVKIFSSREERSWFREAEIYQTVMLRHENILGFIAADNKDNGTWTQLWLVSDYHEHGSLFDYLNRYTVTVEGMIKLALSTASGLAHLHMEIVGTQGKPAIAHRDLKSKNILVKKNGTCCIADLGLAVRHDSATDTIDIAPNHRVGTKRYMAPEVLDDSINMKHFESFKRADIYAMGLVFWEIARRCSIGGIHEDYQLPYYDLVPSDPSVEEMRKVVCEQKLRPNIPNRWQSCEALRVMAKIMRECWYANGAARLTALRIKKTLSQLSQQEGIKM
Chain of Homeodomain-interacting protein kinase 2 (Homo sapiens) (Q9H2X6 whole entry, looked up): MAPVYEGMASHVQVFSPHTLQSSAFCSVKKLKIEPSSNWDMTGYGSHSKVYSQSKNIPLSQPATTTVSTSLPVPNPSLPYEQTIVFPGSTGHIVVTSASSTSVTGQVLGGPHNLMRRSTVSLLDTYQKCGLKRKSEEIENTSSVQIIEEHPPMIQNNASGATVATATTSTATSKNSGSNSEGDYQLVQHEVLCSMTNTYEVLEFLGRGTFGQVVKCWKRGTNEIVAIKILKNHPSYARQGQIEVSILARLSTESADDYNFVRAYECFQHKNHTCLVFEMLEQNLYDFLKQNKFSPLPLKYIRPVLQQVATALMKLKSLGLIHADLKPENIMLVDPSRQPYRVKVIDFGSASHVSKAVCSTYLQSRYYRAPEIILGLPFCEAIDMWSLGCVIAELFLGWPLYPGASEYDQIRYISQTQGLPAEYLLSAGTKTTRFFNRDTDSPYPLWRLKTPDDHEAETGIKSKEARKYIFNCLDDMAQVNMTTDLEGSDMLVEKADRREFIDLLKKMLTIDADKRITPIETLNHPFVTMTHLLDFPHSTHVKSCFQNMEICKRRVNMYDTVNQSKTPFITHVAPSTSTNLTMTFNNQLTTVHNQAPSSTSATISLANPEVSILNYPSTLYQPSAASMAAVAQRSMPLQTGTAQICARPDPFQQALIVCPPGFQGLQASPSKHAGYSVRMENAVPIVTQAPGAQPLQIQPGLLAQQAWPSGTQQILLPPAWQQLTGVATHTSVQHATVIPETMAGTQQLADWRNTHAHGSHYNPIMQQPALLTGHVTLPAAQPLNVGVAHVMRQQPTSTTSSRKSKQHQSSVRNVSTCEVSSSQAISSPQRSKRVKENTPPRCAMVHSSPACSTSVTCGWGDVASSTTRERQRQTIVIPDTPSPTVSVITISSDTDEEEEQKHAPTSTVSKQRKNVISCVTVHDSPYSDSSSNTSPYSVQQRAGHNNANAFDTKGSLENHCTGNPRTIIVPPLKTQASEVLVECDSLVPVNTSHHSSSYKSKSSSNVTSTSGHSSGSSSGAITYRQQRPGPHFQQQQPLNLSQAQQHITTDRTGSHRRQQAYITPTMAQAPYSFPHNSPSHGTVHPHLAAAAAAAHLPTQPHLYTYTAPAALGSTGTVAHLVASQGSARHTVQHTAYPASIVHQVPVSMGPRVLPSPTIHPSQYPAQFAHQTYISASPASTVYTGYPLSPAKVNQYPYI
Chain of MAP kinase-activated protein kinase 5 (Homo sapiens) (Q8IW41 whole entry): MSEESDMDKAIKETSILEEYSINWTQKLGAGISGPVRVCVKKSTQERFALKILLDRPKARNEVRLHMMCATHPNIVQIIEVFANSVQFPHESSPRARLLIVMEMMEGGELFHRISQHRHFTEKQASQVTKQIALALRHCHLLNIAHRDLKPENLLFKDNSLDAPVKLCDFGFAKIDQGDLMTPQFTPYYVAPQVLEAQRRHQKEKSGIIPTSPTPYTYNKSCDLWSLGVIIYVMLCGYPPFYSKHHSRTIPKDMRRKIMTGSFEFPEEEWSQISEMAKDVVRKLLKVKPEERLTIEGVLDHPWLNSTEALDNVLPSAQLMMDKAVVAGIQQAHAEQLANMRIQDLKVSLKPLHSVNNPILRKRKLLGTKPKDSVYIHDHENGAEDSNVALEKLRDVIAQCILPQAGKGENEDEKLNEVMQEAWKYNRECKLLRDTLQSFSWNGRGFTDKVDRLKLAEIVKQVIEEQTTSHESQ

## COc1cc(-c2cn([C@H]3CCc4ccccc4N(CC(F)(F)F)C3=O)nn2)ccc1-n1ccc(C)n1
[1]
  residual activity: 100%
[2]
  inhibition: 59.5%
[3]
  residual activity: 100%
[4]
  residual activity: 74%
[5]
  residual activity: 92%
[6]
  residual activity: 80%
[7]
  residual activity: 83%
[8]
  inhibition: 90.6%
[9]
  residual activity: 91%
[10]
  residual activity: 52%
[11]
  residual activity: 89%
[12]
  residual activity: 90%
[13]
  residual activity: 100%
[14]
  residual activity: 100%
[15]
  residual activity: 100%
[16]
  residual activity: 65%
[17]
  residual activity: 100%
[18]
  residual activity: 82%
[19]
  residual activity: 100%
[20]
  residual activity: 75%
[21]
  residual activity: 100%
[22]
  residual activity: 86%
[23]
  residual activity: 100%
[24]
  residual activity: 68%
[25]
  residual activity: 92%
[26]
  residual activity: 100%
[27]
  residual activity: 81%
[28]
  residual activity: 71%
[29]
  inhibition: 16.9%
[30]
  residual activity: 100%
[31]
  residual activity: 81%
[32]
  residual activity: 100%
[33]
  residual activity: 97%
[34]
  inhibition: 1.18%
[35]
  residual activity: 100%
[36]
  residual activity: 99%
[37]
  residual activity: 92%
[38]
  residual activity: 90%
[39]
  residual activity: 91%
[40]
  residual activity: 100%
[41]
  residual activity: 100%
[42]
  residual activity: 100%
[43]
  inhibition: 22.2%
[44]
  residual activity: 92%
[45]
  residual activity: 73%

## COc1cc(-c2cn([C@H]3CCc4c(F)cccc4N(CC(F)(F)F)C3=O)nn2)ccc1-n1cnc(C)c1
[1]
  residual activity: 100%
[2]
  inhibition: 8.82%
[3]
  residual activity: 100%
[4]
  residual activity: 100%
[5]
  residual activity: 100%
[6]
  residual activity: 99%
[7]
  residual activity: 84%
[8]
  inhibition: 88.6%
[9]
  residual activity: 100%
[10]
  residual activity: 56%
[11]
  residual activity: 100%
[12]
  residual activity: 100%
[13]
  residual activity: 100%
[14]
  residual activity: 100%
[15]
  residual activity: 100%
[16]
  residual activity: 82%
[17]
  residual activity: 100%
[18]
  residual activity: 100%
[19]
  residual activity: 100%
[20]
  residual activity: 78%
[21]
  residual activity: 99%
[22]
  residual activity: 100%
[23]
  residual activity: 100%
[24]
  residual activity: 100%
[25]
  residual activity: 100%
[26]
  residual activity: 100%
[27]
  residual activity: 100%
[28]
  residual activity: 100%
[29]
  inhibition: 27.6%
[30]
  residual activity: 97%
[31]
  residual activity: 82%
[32]
  residual activity: 100%
[33]
  residual activity: 96%
[34]
  inhibition: 19.4%
[35]
  residual activity: 100%
[36]
  residual activity: 100%
[37]
  residual activity: 100%
[38]
  residual activity: 95%
[39]
  residual activity: 100%
[40]
  residual activity: 100%
[41]
  residual activity: 100%
[42]
  residual activity: 100%
[43]
  inhibition: 35%
[44]
  residual activity: 88%
[45]
  residual activity: 100%
